Results reported in patent publication US12440475B2, “Hodgkin lymphoma therapy” (priority 2016, dated 2025).

Experiments:
L428 cells = test: L428 xenograft in NSG mice, CD30 immunofluorescence of cytospin slides; assay type: in vivo; parameters: key to Spleen, red pulp activation, diffuse (CD30 staining score per animal) / Liver, Tumour cell infiltration (CD30 staining score per animal) / Bone marrow (CD30 staining score per animal): 0: without any staining; minimal, <1% staining; 2: mild, 1% staining; 3: moderate, <10% staining; marked, 10-40% staining; 5: severe, >40% of cells staining
Description: Immunodeficient NOD-SCID-gammac−/− (NSG) mice aged 5 to 6 weeks were purchased from Charles River (NOD.Cg-Prkdcscid II2rgtm1Wjl/SzJ). The mice arrived two weeks before the beginning of the experiments and were housed in micro-isolator cages during the entire course of the study. Immediately prior to the injection of Hodgkin lymphoma cells, mice were exposed to 3 Gy gamma irradiation using an IBL637 ^137Cs irradiator at a dose rate of 0.61 Gy/min. From 10^3 to 10^6 cells, either from the original cell lines or following amplification, were injected intravenously via the retro-orbital sinus. The mice were sacrificed by cervical dislocation and different organs were analysed and tumoural infiltration examined using multiple techniques.
Two independent experiments were performed to investigate the dose-effect of EDO-S101 in NSG mice eight weeks after xenografting with L428 cells as in Example 8. The aim of the protocol shown in FIG. […]
The mice were sacrificed by cervical dislocation. The sampled organs consisted of the eyes (site of injection), liver, spleen and bone marrow. Following dissection of different organs, including tumours, the first portion was used for flow cytometry (FACS) and cytogenetic analyses while the second was fixed in 4% paraformaldehyde (PFA) for immunohistochemistry (IHC). To obtain a single cell suspension, the tissues were first cut into pieces. Thereafter, the cells were physically disaggregated using an 80 μm nylon cell strainer and filtered a second time through a 70 μm nylon cell strainer (BD Biosciences, Erembodegem, Belgium).
Cells were cytospun onto poly-L-lysine-coated glass slides at 700 rpm for 4 min, fixed with 10% formalin for 10 min, and treated with 0.25% Triton X-100 solution for 10 min. After blocking with 5% bovine serum albumin (Sigma), the cells were incubated with an anti-CD30 antibody (DAKO A/S, Glostrup, Denmark). Then, cells were treated with Cyanine 3 anti-mouse IgG (Invitrogen, Carlsbad, CA). As a negative control, staining was carried out in the absence of primary antibody. The L428-s cell line served as positive control.
Individual microscopic findings following immunofluorescence CD30 staining of cytopsin slides: “0”=without any staining; “1”=minimal, <1% staining; “2”=mild, 1% staining; “3”=moderate, <10% staining; “4”=marked, 10-40% staining; “5”=severe, >40% of cells staining.

L1236 [1] = test: Cell cycle checkpoint proteins and gene expression, L1236; assay type: cell-based, human; conditions: naïve L1236; EDO-S101 alone
L1236 [2] = test: Combination with Brentuximab Vedotin, % survival, L1236; assay type: cell-based, human; conditions: EDO-S101 1.56 μM (sub-IC50) with Brentuximab Vedotin 3.12 μg/ml
Description: 1.56 μM of EDO-S101 was administered to two Hodgkin lymphoma cell lines, the bendamustine naïve cell line L1236 and the bendamustine resistant cell line R100. In a second experiment, Brentuximab Vedotin was administered at a concentration of 3.12 μg/ml to the L1236 cell line and at a concentration of 0.39 μg/ml to the R100 cell line. Finally, in a third experiment EDO-S101 and Brentuximab Vedotin were administered in combination to each of the two cell lines at the same concentrations that they were administered in the monotherapy experiments.

L540 = test: Clonogenic survival in methylcellulose, L540; assay type: cell-based, human; conditions: any dose (0.1, 0.5, 1, 10 and 20 μmol)
Description: (§1) In all examples, the human Hodgkin lymphoma-derived cell lines L428, L428-c, KMH2, L591, L540, L1236, HDLM2 and SUP-HD were obtained from Dr Steffen Junker (Aarhus University Denmark). All cell lines were cultured in Gibco RPMI 1640 medium supplemented with Glutamax, 10% FBS and antibiotics at 37° C. […] The immunophenotype, P53 status and MSI characterization of the Hodgkin lymphoma cell lines was determined using anti-CD30, CD15, CD20 and CD14 antibodies.
(§2) This test was performed on four Hodgkin lymphoma cell lines (L428, L428s, KMH2 and L540). Each was cultured with EDO-S101 at doses of 0, 0.1, 0.5, 1, 10 and 20 μmol in DMSO. The cell lines were cultured in methylcellulose (Stem cell Technologies) at a concentration of 10^5/ml at 37° C. and 5% CO2. The surviving fraction was determined by measuring the viability of colonies generated before and after exposure. Only colonies with more than 50 cells were counted. Each data point represents the average and SD from three independent experiments performed in triplicate.

CD14 cells = test: CD14-positive cells by flow cytometry in xenografted NSG mice; assay type: in vivo
Description: Cells were gated to exclude apoptotic or necrotic cells and sorted into CD30−/CD15− and CD30+ and CD15+/CD30+ fractions by gating on the lowest and highest 5% PE-expressing cells, respectively. Following sorting, the CD30−/CD15− cell fractions were analyzed using a FACScan flow cytometer (Becton Dickinson) and found to be more than 98% pure. For phenotypic analyses of cell lines or sorted cells, cells were prepared as described, and then stained with mouse anti-human CD30-phycoerthrin (PE), CD15—fluorescein isothyocyanate (FITC), CD14-APC-cyanine 7 (Cy7) and CD45-APC (all antibodies from BD PharMingen, San Diego, CA). […] Cells were subsequently analysed using a FACS LSRII (Becton Dickinson, Franklin Lakes, NJ). […]
Novel biomarkers CD68 and CD14 which are expressed by tumour associated macrophages and myeloid derived suppressor cells respectively in the microenvironment have recently been reported to affect the prognosis of Hodgkin lymphoma (Haematologica, 2011 February; 96(2): 186-189). The presence of the CD14-positive cells following administration of a single dose of EDO-S101 (60 mg/kg or 80 mg/kg) and after two administrations of EDO-S101 at 60 mg/kg was evaluated using flow cytometry with anti CD14 antibodies.

L428s = test: Clonogenic survival in methylcellulose, L428s; assay type: cell-based, human; conditions: very low doses (0.1 and 0.5 μmol)
Description: as §1, §2

R100 = test: ATM/ATR transcripts, R100; assay type: cell-based, human; conditions: bendamustine resistant R100; EDO-S101 alone

## Cn1c(CCCCCCC(=O)NO)nc2cc(N(CCCl)CCCl)ccc21 [EDO-S101]
L428 cells; 1*60 mg/kg
  Spleen, red pulp activation, diffuse (CD30 staining score per animal): 0
L428 cells; 1*60 mg/kg, 60 mg/kg
  Liver, Tumour cell infiltration (CD30 staining score per animal): 0
L428 cells; 1*80 mg/kg
  Liver, Tumour cell infiltration (CD30 staining score per animal): 0
  Spleen, red pulp activation, diffuse (CD30 staining score per animal): 0
L428 cells; 2*60 mg/kg, 60 mg/kg
  Bone marrow (CD30 staining score per animal): 0
  Liver, Tumour cell infiltration (CD30 staining score per animal): 0
  Spleen, red pulp activation, diffuse (CD30 staining score per animal): 0
L428 cells; single dose of 80 mg/kg
  tumour cells in organs (liver, spleen, bone marrow): No tumour cells were observed in any organs
L1236 [1]
  cell cycle checkpoint proteins, cellular and gene expression changes: activated cell cycle checkpoint proteins and induced cellular and gene expression changes compatible with the triggering of apoptosis
L1236 [2]
  cell death in combination with Brentuximab Vedotin: synergistic
L540
  clones observed (clonogenic survival): No clone was observed
CD14 cells; 60 mg/kg, 80 mg/kg, 2×60 mg/kg
  frequency of CD14 cells, untreated versus treated mice: significantly higher frequency of CD14 cells in untreated mice compared to treated mice
CD14 cells; mouse, in vivo
  frequency of CD14 cells, 2×60 mg/kg versus 80 mg/kg: higher frequency following treatment with 2×60 mg/kg than treatment with a single dose of 80 mg/kg
L428s
  clones observed (clonogenic survival): only macrophagic clones being observed
R100
  ATM/ATR transcripts: correct the constitutive ATM/ATR unbalance by upregulating ATR and downregulating ATM transcripts
